In patent publication US20240190880A1 (THE REGENTS OF THE UNIVERSITY OF MICHIGAN, priority 2021, published 2024):

Molecular target: T1, ER (Homo sapiens, UniProt P03372)
T1 construct: host or cells: T47D and MCF7 human breast cancer cells
T1 sequence (P03372 1-595): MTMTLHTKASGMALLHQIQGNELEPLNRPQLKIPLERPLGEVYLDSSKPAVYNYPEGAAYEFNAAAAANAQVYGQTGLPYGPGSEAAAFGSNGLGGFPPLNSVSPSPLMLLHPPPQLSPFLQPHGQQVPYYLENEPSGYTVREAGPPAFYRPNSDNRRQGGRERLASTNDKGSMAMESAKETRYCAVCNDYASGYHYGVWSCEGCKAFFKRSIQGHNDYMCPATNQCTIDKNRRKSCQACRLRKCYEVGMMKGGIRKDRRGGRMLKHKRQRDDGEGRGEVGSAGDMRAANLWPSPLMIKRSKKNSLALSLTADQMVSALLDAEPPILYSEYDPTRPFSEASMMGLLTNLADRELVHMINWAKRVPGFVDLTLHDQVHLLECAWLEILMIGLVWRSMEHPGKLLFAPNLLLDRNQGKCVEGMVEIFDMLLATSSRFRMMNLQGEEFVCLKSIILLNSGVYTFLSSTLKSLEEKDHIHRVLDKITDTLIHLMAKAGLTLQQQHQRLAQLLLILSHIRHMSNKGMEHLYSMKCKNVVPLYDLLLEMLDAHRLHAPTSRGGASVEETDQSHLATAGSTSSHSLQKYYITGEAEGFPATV
Test: ER degradation activity, in-cell western blot analysis in T47D cells
Format: cell-based
Details: 16 hours, Table A does not say which cell line (T47D or MCF7), read-out: Potency (DC50)
Procedure, shortened: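 T47D cells cultured in DMEM with 10% FBS, treated with compounds (final 0.5% DMSO) for 16 h. ER level measured by in-cell western with anti-rabbit-680/anti-mouse-800 near-infrared detection. Relative ER percentage calculated against untreated and DMSO-treated wells set as 100%.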

| Compound | DC50 [nM] |
| --- | --- |
| C[C@@H]1Cc2c([nH]c3ccccc23)[C@@H](c2c(F)cc(N3CCC4(CCN(C(=O)CN5Cc6cc7c(cc6C5)C(=O)N(C5CCC(=O)NC5=O)C7)C4)CC3)cc2F)N1CC(F)F (stereo partly drawn) [E 64, 3-(6-(2-(8-(4-((1R,3R)-2-(2,2-difluoroethyl)-3-methyl-2,3,4,9-tetrahydro-1H-pyrido[3,4-b]indol-1-yl)-3,5-difluorophenyl)-2,8-diazaspiro[4.5]decan-2-yl)-2-oxoethyl)-1-oxo-3,5,6,7-tetrahydropyrrolo[3,4-f]isoindol-2(1H)-yl)piperidine-2,6-dione] | < 10 |
| C[C@@H]1Cc2cc(O)ccc2[C@@H](c2c(F)cc(N3CCC4(CCN(CC(=O)N5Cc6cc7c(cc6C5)C(=O)N(C5CCC(=O)NC5=O)C7=O)C4)CC3)cc2F)N1CC(C)(F)F (stereo partly drawn) [E 33, 6-(2-(8-(4-((1S,3R)-2-(2,2-difluoropropyl)-6-hydroxy-3-methyl-1,2,3,4-tetrahydroisoquinolin-1-yl)-3,5-difluorophenyl)-2,8-diazaspiro[4.5]decan-2-yl)acetyl)-2-(2,6-dioxopiperidin-3-yl)-6,7-dihydropyrrolo[3,4-f]isoindole-1,3(2H,5H)-dione] | > 100 |
| C[C@@H]1Cc2cc(O)ccc2[C@@H](c2c(F)cc(N3CC4(CCN(CC(=O)N5Cc6cc7c(cc6C5)C(=O)N(C5CCC(=O)NC5=O)C7)C4)C3)cc2F)N1CC(F)F (stereo partly drawn) [E 40, 3-(6-(2-(2-(4-((1S,3R)-2-(2,2-difluoroethyl)-6-hydroxy-3-methyl-1,2,3,4-tetrahydroisoquinolin-1-yl)-3,5-difluorophenyl)-2,6-diazaspiro[3.4]octan-6-yl)acetyl)-1-oxo-3,5,6,7-tetrahydropyrrolo[3,4-f]isoindol-2(1H)-yl)piperidine-2,6-dione] | < 10 |
| C[C@@H]1Cc2c([nH]c3ccccc23)[C@H](c2c(F)cc(C(=O)N3CCC4(CCC(CN5Cc6cc7c(cc6C5)C(=O)N(C5CCC(=O)NC5=O)C7=O)CC4)CC3)cc2F)N1CC(F)F (stereo partly drawn) [E 379, 6-((3-(4-((1S,3R)-2-(2,2-difluoroethyl)-3-methyl-2,3,4,9-tetrahydro-1H-pyrido[3,4-b]indol-1-yl)-3,5-difluorobenzoyl)-3-azaspiro[5.5]undecan-9-yl)methyl)-2-(2,6-dioxopiperidin-3-yl)-6,7-dihydropyrrolo[3,4-f]isoindole-1,3(2H,5H)-dione] | > 100 |
| C[C@@H]1Cc2c([nH]c3ccccc23)[C@@H](c2c(F)cc(-c3ncc(C(=O)N4CCC(N5Cc6cc7c(cc6C5)C(=O)N(C5CCC(=O)NC5=O)C7=O)CC4)cn3)cc2F)N1CC(F)F (stereo partly drawn) [E 346, 6-(1-(2-(4-((1R,3R)-2-(2,2-difluoroethyl)-3-methyl-2,3,4,9-tetrahydro-1H-pyrido[3,4-b]indol-1-yl)-3,5-difluorophenyl)pyrimidine-5-carbonyl)piperidin-4-yl)-2-(2,6-dioxopiperidin-3-yl)-6,7-dihydropyrrolo[3,4-f]isoindole-1,3(2H,5H)-dione] | < 10 |
| O=C1CCC(N2C(=O)c3cc4c(cc3C2=O)CN(C2CCC(C(=O)N3CC(Oc5ccc([C@H]6c7ccc(O)cc7CC[C@H]6c6ccccc6)cc5)C3)CC2)C4)C(=O)N1 (stereo partly drawn) [E 384, 2-(2,6-dioxopiperidin-3-yl)-6-((1R,4s)-4-(3-(4-((1S,2R)-6-hydroxy-2-phenyl-1,2,3,4-tetrahydronaphthalen-1-yl)phenoxy)azetidine-1-carbonyl)cyclohexyl)-6,7-dihydropyrrolo[3,4-f]isoindole-1,3(2H,5H)-dione] | 10 to 100 |
| O=C1CCC(N2C(=O)c3cc4c(cc3C2=O)CN(CC(=O)N2CCC3(CC2)CCN(c2cnc([C@@H]5c6ccc(O)cc6CC[C@@H]5c5ccccc5)cn2)CC3)C4)C(=O)N1 (mixture of isomers) [E 304, Rac-2-(2,6-dioxopiperidin-3-yl)-6-(2-(9-(5-((1S,2S)-6-hydroxy-2-phenyl-1,2,3,4-tetrahydronaphthalen-1-yl)pyrazin-2-yl)-3,9-diazaspiro[5.5]undecan-3-yl)-2-oxoethyl)-6,7-dihydropyrrolo[3,4-f]isoindole-1,3(2H,5H)-dione] | > 100 |
